Experimental data: patent US20220153734A1, “Pyrazolopyridine Compounds For IRE1 Inhibition” (Optikira, LLC, priority 2019, published 2022)

Assays:
IRE1α = target: T1, IRE1α (Homo sapiens, UniProt O75460); test: Biochemical assay: inhibition of RNase activity of IRE1α; settings: enzyme 0.325 nM, substrate 100 nM, 20 minutes
T1 construct: purchased Signal Chem E31-11G
Experimental: Biochemical Assay: Inhibition of RNase Activity of IRE1α
The RNase reactions were performed in 384 well black ProxiPlate-384 Plus plates (PERKIN Elmer) using 50 mM Tris assay buffer with 0.5 mM MgCl2, 10 mM KCl, 0.03% Tween, 2 mM DTT and 1% DMSO. Test compounds were prepared on the day of assay and dispensed using D300 digital dispenser as a 10-point ½ log dilution series in duplicate, normalized to a final DMSO concentration of […]. Test compounds were pre-incubated for 30 min at room temperature with IRE1α kinase (E31-11G from Signal Chem) in 2.5 μL of assay buffer. Then 2.5 μl of assay buffer containing substrate (5′ Alexa Fluor 647-rCrArU rGrUrC rCrGrC rArGrC rGrCrArUrG-Iowa Black RQ quencher 3′) added, giving a final concentration of enzyme of 0.325 nM and of substrate of 100 nM. After 20 minutes incubation at room temperature the reactions were stopped by added 5 μL of 5M urea, incubated at room temperature for 10 minutes and fluorescence measured on a plate reader (EnVision, PerkinElmer). IC50 values calculated by fitting a sigmoidal curve to percent inhibition of control versus compound concentration.

[1] = test system: ARPE-19 cells stably expressing XBP1 (a.a. 1-376); test: Cellular XBP1 splicing assay (NanoLuc luciferase, thapsigargin); format: cell-based; settings: thapsigargin 150 nM, 4 hour
Experimental: Cellular XBP1 Splicing Assay
ARPE-19 cells stably expressing XBP1 (a.a. 1-376) with nano-luciferase gene sequence linked so it is in frame when XBP1 is spliced, were cultured in F12 media, 10% FBS, 0.044% sodium bicarbonate, 150 μg/ml hygromycin B and seeded for assays at 5,000 cells in 384 well plates in culture media without hygromycin B and incubated at 37° C./5% CO2. After overnight incubation test compounds were added to the cell plate in a 10-point ½ log dilution series in duplicate (final DMSO concentration 0.117%). After further incubation of 30 minutes thapsigargin was added (final concentration 150 nM) and then another 4 hour incubation. A NanoLuc luciferase assay (Promega) was used according to the manufacturer's instructions to detect the luciferase and luminescence measured on a luminometer (EnVision, PerkinElmer). IC50 values calculated by fitting a sigmoidal curve to percent inhibition of control of compound concentration.

T1 sequence (O75460 468-977 limits assumed): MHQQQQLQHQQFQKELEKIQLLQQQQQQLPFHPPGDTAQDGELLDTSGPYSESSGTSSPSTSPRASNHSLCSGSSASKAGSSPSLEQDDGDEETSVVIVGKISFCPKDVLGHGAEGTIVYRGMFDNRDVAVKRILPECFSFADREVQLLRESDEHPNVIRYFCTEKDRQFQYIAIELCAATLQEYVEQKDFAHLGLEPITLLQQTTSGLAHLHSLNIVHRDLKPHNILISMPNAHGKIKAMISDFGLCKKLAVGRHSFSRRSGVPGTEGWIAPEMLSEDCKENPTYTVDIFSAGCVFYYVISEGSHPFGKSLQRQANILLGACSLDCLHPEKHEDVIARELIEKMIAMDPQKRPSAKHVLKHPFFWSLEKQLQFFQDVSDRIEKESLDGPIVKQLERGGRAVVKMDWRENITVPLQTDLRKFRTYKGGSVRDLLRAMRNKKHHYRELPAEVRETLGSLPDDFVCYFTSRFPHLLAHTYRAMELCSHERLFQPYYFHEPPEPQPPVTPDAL

Cc1ccc(F)c(S(=O)(=O)Nc2ccc(-c3nn(C(C)C)c4c(C5=CCC(NC6COC6)CC5)cnc(N)c34)cc2F)c1 (single isomer, unassigned) [Compound B16, N-(4-(4-amino-1-isopropyl-7-(4-(oxetan-3-ylamino)cyclohex-1-en-1-yl)-1H-pyrazolo[4,3-c]pyridin-3-yl)-2-fluorophenyl)-2-fluoro-5-methylbenzenesulfonamide]
IC50 (IRE1α): 13 nM
IC50 [1]: 110 nM

Cc1ccc(F)c(S(=O)(=O)Nc2ccc(-c3nn(C(C)C)c4c(C5=CCC(NC6COC6)CC5)cnc(N)c34)cc2F)c1 (single isomer, unassigned) [Compound B17, N-(4-(4-amino-1-isopropyl-7-(4-(oxetan-3-ylamino)cyclohex-1-en-1-yl)-1H-pyrazolo[4,3-c]pyridin-3-yl)-2-fluorophenyl)-2-fluoro-5-methylbenzenesulfonamide]
IC50 (IRE1α): 2.2 nM
IC50 [1]: 21 nM

Nc1ncc(C2=CCC(NC3COC3)CC2)c2c1c(-c1ccc(NS(=O)(=O)c3ccccc3Cl)c(F)c1)nn2C1CC1 (single isomer, unassigned) [Compound B18, N-(4-(4-amino-1-cyclopropyl-7-(4-(oxetan-3-ylamino)cyclohex-1-en-1-yl)-1H-pyrazolo[4,3-c]pyridin-3-yl)-2-fluorophenyl)-2-chlorobenzenesulfonamide]
IC50 (IRE1α): 9.9 nM
IC50 [1]: 82 nM

Nc1ncc(C2=CCC(NC3COC3)CC2)c2c1c(-c1ccc(NS(=O)(=O)c3ccccc3Cl)c(F)c1)nn2C1CC1 (single isomer, unassigned) [Compound B19, N-(4-(4-amino-1-cyclopropyl-7-(4-(oxetan-3-ylamino)cyclohex-1-en-1-yl)-1H-pyrazolo[4,3-c]pyridin-3-yl)-2-fluorophenyl)-2-chlorobenzenesulfonamide]
IC50 (IRE1α): 3.5 nM
IC50 [1]: 20 nM

Nc1ncc(C2=CCC(NC3COC3)CC2)c2c1c(-c1ccc(NS(=O)(=O)Cc3ccccc3Cl)c(F)c1)nn2C1CC1 (single isomer, unassigned) [Compound B22, N-(4-(4-amino-1-cyclopropyl-7-(4-(oxetan-3-ylamino)cyclohex-1-en-1-yl)-1H-pyrazolo[4,3-c]pyridin-3-yl)-2-fluorophenyl)-1-(2-chlorophenyl)methanesulfonamide]
IC50 (IRE1α): 0.9 nM
IC50 [1]: 10 nM

Nc1ncc(C2=CCC(NC3COC3)CC2)c2c1c(-c1ccc(NS(=O)(=O)Cc3ccccc3Cl)c(F)c1)nn2C1CC1 (single isomer, unassigned) [Compound B23, N-(4-(4-amino-1-cyclopropyl-7-(4-(oxetan-3-ylamino)cyclohex-1-en-1-yl)-1H-pyrazolo[4,3-c]pyridin-3-yl)-2-fluorophenyl)-1-(2-chlorophenyl)methanesulfonamide]
IC50 (IRE1α): 3.1 nM
IC50 [1]: 46 nM

CCn1nc(-c2ccc(NS(=O)(=O)Cc3ccccc3Cl)cc2)c2c(N)ncc(C3=CCC(NC4COC4)CC3)c21 (single isomer, unassigned) [Compound B24, N-(4-(4-amino-1-ethyl-7-(4-(oxetan-3-ylamino)cyclohex-1-en-1-yl)-1H-pyrazolo[4,3-c]pyridin-3-yl)phenyl)-1-(2-chlorophenyl)methanesulfonamide]
IC50 (IRE1α): 53 nM
IC50 [1]: 580 nM

CCn1nc(-c2ccc(NS(=O)(=O)Cc3ccccc3F)c(F)c2)c2c(N)ncc(C3=CCC(NC4COC4)CC3)c21 (single isomer, unassigned) [Compound B27, N-(4-(4-amino-1-ethyl-7-(4-(oxetan-3-ylamino)cyclohex-1-en-1-yl)-1H-pyrazolo[4,3-c]pyridin-3-yl)-2-fluorophenyl)-1-(2-fluorophenyl)methanesulfonamide]
IC50 (IRE1α): 5.9 nM
IC50 [1]: 78 nM

CCn1nc(-c2ccc(NS(=O)(=O)Cc3ccccc3Cl)c(F)c2)c2c(N)ncc(C3=CCC(NC4COC4)CC3)c21 (single isomer, unassigned) [Compound B29, N-(4-(4-amino-1-ethyl-7-(4-(oxetan-3-ylamino)cyclohex-1-en-1-yl)-1H-pyrazolo[4,3-c]pyridin-3-yl)-2-fluorophenyl)-1-(2-chlorophenyl)methanesulfonamide]
IC50 (IRE1α): 7.4 nM
IC50 [1]: 68 nM

CCn1nc(-c2ccc(NS(=O)(=O)c3ccccc3F)c(F)c2)c2c(N)ncc(C3=CCC(NC4COC4)CC3)c21 (single isomer, unassigned) [Compound B33, N-(4-(4-amino-1-ethyl-7-(4-(oxetan-3-ylamino)cyclohex-1-en-1-yl)-1H-pyrazolo[4,3-c]pyridin-3-yl)-2-fluorophenyl)-2-fluorobenzenesulfonamide]
IC50 (IRE1α): 60 nM
IC50 [1]: 100 nM

CCn1nc(-c2ccc(NS(=O)(=O)c3ccccc3F)c(F)c2)c2c(N)ncc(C3=CCC(NC4COC4)CC3)c21 (single isomer, unassigned) [Compound B34, N-(4-(4-amino-1-ethyl-7-(4-(oxetan-3-ylamino)cyclohex-1-en-1-yl)-1H-pyrazolo[4,3-c]pyridin-3-yl)-2-fluorophenyl)-2-fluorobenzenesulfonamide]
IC50 (IRE1α): 100 nM
IC50 [1]: 400 nM

CCn1nc(-c2ccc(NS(=O)(=O)c3cc(C)ccc3F)c(F)c2)c2c(N)ncc(C3=CCC(NC4COC4)CC3)c21 (single isomer, unassigned) [Compound B35, N-(4-(4-amino-1-ethyl-7-(4-(oxetan-3-ylamino)cyclohex-1-en-1-yl)-1H-pyrazolo[4,3-c]pyridin-3-yl)-2-fluorophenyl)-2-fluoro-5-methylbenzenesulfonamide]
IC50 (IRE1α): 14 nM
IC50 [1]: 52 nM

CCn1nc(-c2ccc(NS(=O)(=O)c3cc(C)ccc3F)c(F)c2)c2c(N)ncc(C3=CCC(NC4COC4)CC3)c21 (single isomer, unassigned) [Compound B36, N-(4-(4-amino-1-ethyl-7-(4-(oxetan-3-ylamino)cyclohex-1-en-1-yl)-1H-pyrazolo[4,3-c]pyridin-3-yl)-2-fluorophenyl)-2-fluoro-5-methylbenzenesulfonamide]
IC50 (IRE1α): 51 nM
IC50 [1]: 210 nM

CCn1nc(-c2ccc(NS(=O)(=O)c3cc(Cl)ccc3F)c(F)c2)c2c(N)ncc(C3=CCC(NC4COC4)CC3)c21 (single isomer, unassigned) [Compound B38, N-(4-(4-amino-1-ethyl-7-(4-(oxetan-3-ylamino)cyclohex-1-en-1-yl)-1H-pyrazolo[4,3-c]pyridin-3-yl)-2-fluorophenyl)-5-chloro-2-fluorobenzenesulfonamide]
IC50 (IRE1α): 5.6 nM
IC50 [1]: 97 nM

CC(CF)NC1CC=C(c2cnc(N)c3c(-c4ccc(NS(=O)(=O)c5ccccc5Cl)c(F)c4)nn(C(C)C)c23)CC1 (single isomer, unassigned) [Compound B40, N-(4-(4-amino-7-(4-((1-fluoropropan-2-yl)amino)cyclohex-1-en-1-yl)-1-isopropyl-1H-pyrazolo[4,3-c]pyridin-3-yl)-2-fluorophenyl)-2-chlorobenzenesulfonamide]
IC50 (IRE1α): 14 nM
IC50 [1]: 67 nM

CC(CF)NC1CC=C(c2cnc(N)c3c(-c4ccc(NS(=O)(=O)c5ccccc5Cl)c(F)c4)nn(C(C)C)c23)CC1 (single isomer, unassigned) [Compound B41, N-(4-(4-amino-7-(4-((1-fluoropropan-2-yl)amino)cyclohex-1-en-1-yl)-1-isopropyl-1H-pyrazolo[4,3-c]pyridin-3-yl)-2-fluorophenyl)-2-chlorobenzenesulfonamide]
IC50 (IRE1α): 6.1 nM
IC50 [1]: 10 nM

CC(F)CNC1CC=C(c2cnc(N)c3c(-c4ccc(NS(=O)(=O)Cc5ccccc5Cl)c(F)c4)nn(C(C)C)c23)CC1 (single isomer, unassigned) [Compound B42, N-(4-(4-amino-7-(4-((2-fluoropropyl)amino)cyclohex-1-en-1-yl)-1-isopropyl-1H-pyrazolo[4,3-c]pyridin-3-yl)-2-fluorophenyl)-1-(2-chlorophenyl)methanesulfonamide]
IC50 (IRE1α): 1.7 nM
IC50 [1]: 18 nM

CC(F)CNC1CC=C(c2cnc(N)c3c(-c4ccc(NS(=O)(=O)Cc5ccccc5Cl)c(F)c4)nn(C(C)C)c23)CC1 (single isomer, unassigned) [Compound B43, N-(4-(4-amino-7-(4-((2-fluoropropyl)amino)cyclohex-1-en-1-yl)-1-isopropyl-1H-pyrazolo[4,3-c]pyridin-3-yl)-2-fluorophenyl)-1-(2-chlorophenyl)methanesulfonamide]
IC50 (IRE1α): 0.5 nM
IC50 [1]: 5.1 nM

CC(CF)NC1CC=C(c2cnc(N)c3c(-c4ccc(NS(=O)(=O)Cc5ccccc5Cl)c(F)c4)nn(C(C)C)c23)CC1 (single isomer, unassigned) [Compound B44, N-(4-(4-amino-7-(4-((1-fluoropropan-2-yl)amino)cyclohex-1-en-1-yl)-1-isopropyl-1H-pyrazolo[4,3-c]pyridin-3-yl)-2-fluorophenyl)-1-(2-chlorophenyl)methanesulfonamide]
IC50 (IRE1α): 1.6 nM
IC50 [1]: 10 nM
